pIC50: −log10 of the molar value. Where two headings read alike, the source gives them in different places.
Columns and labels:
[1] = target: GSK3b (GST-full length GSK3b) (Homo sapiens (Human), UniProt P49841); experiment: GSK3b TR-FRET kinase assay; type: biochemical
Summary of the method: (§1)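 IC50s came from the normalized 665/615 TR-FRET ratio after Tb-anti-pSer641 antibody and streptavidin-d2 detection of phosphorylated biotin-glycogen synthase peptide (200 nM). ATP was 4 μM for GSK3α, 2 μM for GSK3b, or 1 mM; 1 nM enzyme, 100 min, ambient, pH 7.5, after 30-min compound preincubation.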

[2] = target: GSK3α (GST-full length GSK3α) (Homo sapiens (Human), UniProt P49840); experiment: GSK3α TR-FRET kinase assay; type: biochemical
GSK3α (GST-full length GSK3α), sequence (P49840 whole entry): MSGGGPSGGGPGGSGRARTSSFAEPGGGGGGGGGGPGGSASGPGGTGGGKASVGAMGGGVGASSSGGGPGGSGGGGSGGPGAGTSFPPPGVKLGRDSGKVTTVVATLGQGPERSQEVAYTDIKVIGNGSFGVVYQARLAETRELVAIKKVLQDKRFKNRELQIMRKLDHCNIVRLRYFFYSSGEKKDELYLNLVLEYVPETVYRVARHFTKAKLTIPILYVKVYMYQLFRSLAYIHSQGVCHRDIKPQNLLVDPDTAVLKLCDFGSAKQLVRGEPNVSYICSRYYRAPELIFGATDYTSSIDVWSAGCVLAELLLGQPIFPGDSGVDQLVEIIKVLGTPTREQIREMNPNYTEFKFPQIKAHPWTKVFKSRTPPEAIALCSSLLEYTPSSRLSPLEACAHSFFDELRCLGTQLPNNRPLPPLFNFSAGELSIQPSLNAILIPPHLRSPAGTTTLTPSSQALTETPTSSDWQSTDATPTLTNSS
Summary of the method: as §1

[3] = 1 nM GSK3b, 2 μM ATP, 30 minute preincubation, read-out: GSK3-B TR-FRET BIOCHEMICAL (TR-FRET), IC50
[4] = 1 nM GSK3α, 4 μM ATP, 30 minute preincubation, read-out: GSK3-A TR-FRET BIOCHEMICAL (TR-FRET), IC50
[5] = read-out: GSK3-B (TR-FRET 1 mM ATP), GMean, IC50, 1 mM ATP, geometric mean
[6] = read-out: GSK3-A (TR-FRET 1 mM ATP), GMean, IC50, 1 mM ATP, geometric mean
[7] = 1 nM GSK3b, 2 μM ATP, 30 minute preincubation, Table 16, read-out: GSK3-B TR-FRET BIOCHEMICAL (TR-FRET)
[8] = 1 nM GSK3α, 4 μM ATP, 30 minute preincubation, Table 16, read-out: GSK3-A TR-FRET BIOCHEMICAL (TR-FRET)
[9] = 1 nM GSK3b, 2 μM ATP, 30 minute preincubation, geometric mean, read-out: GSK3-B TR-FRET BIOCHEMICAL (TR-FRET), GMean, IC50
[10] = 1 nM GSK3α, 4 μM ATP, 30 minute preincubation, geometric mean, read-out: GSK3-A TR-FRET BIOCHEMICAL (TR-FRET), GMean, IC50

GSK3b (GST-full length GSK3b), sequence (P49841 whole entry): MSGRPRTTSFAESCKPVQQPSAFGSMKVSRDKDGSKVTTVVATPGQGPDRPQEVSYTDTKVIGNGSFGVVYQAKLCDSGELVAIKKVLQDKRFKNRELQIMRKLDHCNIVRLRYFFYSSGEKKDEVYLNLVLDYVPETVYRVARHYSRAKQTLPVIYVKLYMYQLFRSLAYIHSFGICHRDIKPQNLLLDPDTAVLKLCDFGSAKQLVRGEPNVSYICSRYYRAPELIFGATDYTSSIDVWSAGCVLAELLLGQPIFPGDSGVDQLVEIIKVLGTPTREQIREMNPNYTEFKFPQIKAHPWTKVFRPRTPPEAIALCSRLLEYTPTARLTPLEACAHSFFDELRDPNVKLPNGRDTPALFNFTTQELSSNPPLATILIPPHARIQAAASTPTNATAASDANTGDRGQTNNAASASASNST

Compound	pIC50 [1, 3]	pIC50 [2, 4]	pIC50 [1, 5]	pIC50 [2, 6]	pIC50 [1, 7]	pIC50 [2, 8]	further results
Cc1ccc(C(=O)N2CC3(C2)CC2(CO3)C3=C(CC(C)(C)CC3=O)Nc3n[nH]cc32)c(C)c1 (stereo not shown) [Compound 947294]	6.00 to 7.00	≥ 7.00	–	–	–	–	–
Cc1ccccc1CC(=O)N1CC2(C1)CC1(CO2)C2=C(CC(C)(C)CC2=O)Nc2n[nH]cc21 (stereo not shown) [Compound 947295]	≥ 7.00	≥ 7.00	–	–	–	–	–
Cc1cc(C)cc(C(=O)N2CC3(C2)CC2(CO3)C3=C(CC(C)(C)CC3=O)Nc3n[nH]cc32)c1 (stereo not shown) [Compound 947296]	≥ 7.00	≥ 7.00	–	–	–	–	–
CC1(C)CC(=O)C2=C(C1)Nc1n[nH]cc1C21COC2(CN(C(=O)C3CC3)C2)C1 (stereo not shown) [Compound 947297]	≥ 7.00	≥ 7.00	–	–	–	–	–
CC1(C)CC(=O)C2=C(C1)Nc1n[nH]cc1C21COC2(CN(C(=O)CC3CC3)C2)C1 (stereo not shown) [Compound 947298]	≥ 7.00	≥ 7.00	–	–	–	–	–
CC1(C)CC(=O)C2=C(C1)Nc1n[nH]cc1C21COC2(CN(C(=O)CC3CCC3)C2)C1 (stereo not shown) [Compound 947299]	≥ 7.00	≥ 7.00	–	–	–	–	–
CCCC(=O)N1CC2(C1)CC1(CO2)C2=C(CC(C)(C)CC2=O)Nc2n[nH]cc21 (stereo not shown) [Compound 947300]	≥ 7.00	≥ 7.00	–	–	–	–	–
CC(C)(C)CC(=O)N1CC2(C1)CC1(CO2)C2=C(CC(C)(C)CC2=O)Nc2n[nH]cc21 (stereo not shown) [Compound 947301]	5.30 to 6.00	6.00 to 7.00	–	–	–	–	–
CC(C)CC(=O)N1CC2(C1)CC1(CO2)C2=C(CC(C)(C)CC2=O)Nc2n[nH]cc21 (stereo not shown) [Compound 947302]	≥ 7.00	≥ 7.00	–	–	–	–	–
CC1(C)CC(=O)C2=C(C1)Nc1n[nH]cc1C21COC2(CN(C(=O)C(C)(C)C)C2)C1 (stereo not shown) [Compound 947303]	≥ 7.00	≥ 7.00	–	–	–	–	–
CC(C)C(=O)N1CC2(C1)CC1(CO2)C2=C(CC(C)(C)CC2=O)Nc2n[nH]cc21 (stereo not shown) [Compound 947304]	6.00 to 7.00	≥ 7.00	–	–	–	–	–
CC1(C)CC(=O)C2=C(C1)Nc1n[nH]cc1C21COC2(CN(C(=O)CC3CCCCC3)C2)C1 (stereo not shown) [Compound 947305]	≥ 7.00	≥ 7.00	–	–	–	–	–
CC1(C)CC(=O)C2=C(C1)Nc1n[nH]cc1C21COC2(CN(C(=O)Cc3ccccc3)C2)C1 (stereo not shown) [Compound 947306]	≥ 7.00	≥ 7.00	≥ 7.00	≥ 7.00	–	–	–
CC1(C)CC(=O)C2=C(C1)Nc1n[nH]cc1C21COC2(CN(C(=O)C3(C)CCCC3)C2)C1 (stereo not shown) [Compound 947307]	≥ 7.00	≥ 7.00	–	–	–	–	–
CC1(C)CC(=O)C2=C(C1)Nc1n[nH]cc1C21COC2(CN(C(=O)C3CCCCCC3)C2)C1 (stereo not shown) [Compound 947308]	6.00 to 7.00	≥ 7.00	–	–	–	–	–
CC[C@]1(c2cccc(-c3ccncc3C)c2)C2=C(CC(C)(C)CC2=O)Nc2n[nH]c(C(F)(F)F)c21 [Compound 947324]	–	–	≥ 7.00	≥ 7.00	≥ 7.00	≥ 7.00	–
CC[C@]1(c2cccc(-c3ccncc3F)c2)C2=C(CC(C)(C)CC2=O)Nc2n[nH]c(C(F)(F)F)c21 [Compound 947326]	–	–	≥ 7.00	≥ 7.00	≥ 7.00	≥ 7.00	–
CCC1(c2cccc(-c3ccnc(C)c3C)c2)C2=C(CC(C)(C)CC2=O)Nc2n[nH]c(C(F)(F)F)c21 (stereo not shown) [Compound 947328]	–	–	–	–	6.00 to 7.00	6.00 to 7.00	–
CCC1(c2cccc(-c3ccnc(C)c3C)c2)C2=C(CC(C)(C)CC2=O)Nc2n[nH]c(C(F)(F)F)c21 (stereo not shown) [Compound 947329]	–	–	≥ 7.00	≥ 7.00	≥ 7.00	≥ 7.00	–
CCC1(c2cccc(C(F)(F)F)c2)C2=C(CCN(c3ccc(OC)cc3)C2=O)Nc2n[nH]cc21 (stereo not shown) [Compound 947332]	6.00 to 7.00	≥ 7.00	–	–	–	–	–
CCN(c1cccc(C2(CC)C3=C(CC(C)(C)CC3=O)Nc3n[nH]cc32)c1)c1ncccn1 (stereo not shown) [Compound 947333]	–	–	6.00 to 7.00	≥ 7.00	≥ 7.00	≥ 7.00	–
CCN(c1cccc([C@@]2(CC)C3=C(CC(C)(C)CC3=O)Nc3n[nH]cc32)c1)c1ncccn1 [Compound 947334]	–	–	–	–	5.30 to 6.00	6.00 to 7.00	–
CCC1(c2cccc(-c3cc(C)ncc3C)c2)C2=C(CC(C)(C)CC2=O)Nc2n[nH]c(C(F)(F)F)c21 (stereo not shown) [Compound 947363]	–	–	6.00 to 7.00	≥ 7.00	≥ 7.00	≥ 7.00	–
CCC1(c2cccc(-c3ccnn3C)c2)C2=C(CC(C)(C)CC2=O)Nc2n[nH]c(C(F)(F)F)c21 (stereo not shown) [Compound 947365]	–	–	–	–	5.30 to 6.00	6.00 to 7.00	–

Compound	pIC50 [1, 3]	pIC50 [2, 4]	pIC50 [1, 5]	pIC50 [2, 6]	pIC50 [1, 7]	pIC50 [2, 8]	further results
CC[C@@]1(c2cccc(-c3ccnn3C)c2)C2=C(CC(C)(C)CC2=O)Nc2n[nH]c(C(F)(F)F)c21 [Compound 947372]	–	–	≥ 7.00	≥ 7.00	≥ 7.00	≥ 7.00	–
CC[C@]1(c2cccc(-c3cc(C)nn3C)c2)C2=C(CC(C)(C)CC2=O)Nc2n[nH]c(C(F)(F)F)c21 [Compound 947383]	–	–	–	–	< 5.30	5.30 to 6.00	–
CCC1(c2cccc(S(C)(=O)=O)c2)C2=C(CC(C)(C)NC2=O)Nc2n[nH]c(C)c21 (stereo not shown) [Compound 947395]	≥ 7.00	≥ 7.00	6.00 to 7.00	6.00 to 7.00	–	–	–
CCC1(c2cccc(-c3cnnn3C(C)C)c2)C2=C(CC(C)(C)CC2=O)Nc2n[nH]cc21 (stereo not shown) [Compound 947397]	–	–	–	–	≥ 7.00	≥ 7.00	–
CCC1(c2cccc(-c3cnnn3C)c2)C2=C(CC(C)(C)CC2=O)Nc2n[nH]cc21 (stereo not shown) [Compound 947398]	–	–	–	–	≥ 7.00	≥ 7.00	–
CCC1(c2cccc(-c3ccnc(C)c3C)c2)C2=C(CC(C)(C)NC2=O)Nc2n[nH]c(C)c21 (stereo not shown) [Compound 947399]	–	–	–	–	–	–	pIC50 [1, 9]: 5.30 to 6.00; pIC50 [2, 10]: 6.00 to 7.00
CCC1(c2cccc(Oc3ncccn3)c2)C2=C(CC(C)(C)CC2=O)Nc2n[nH]cc21 (stereo not shown) [Compound 947400]	–	–	–	–	≥ 7.00	≥ 7.00	–
CCC1(c2cccc(-c3ccnc(C)c3F)c2)C2=C(CC(C)(C)NC2=O)Nc2n[nH]c(C)c21 (stereo not shown) [Compound 947402]	–	–	–	–	–	–	pIC50 [1, 9]: 6.00 to 7.00; pIC50 [2, 10]: ≥ 7.00
CCC1(c2cccc(-c3cnn(C)c3C)c2)C2=C(CC(C)(C)NC2=O)Nc2n[nH]c(C(F)(F)F)c21 (stereo not shown) [Compound 947403]	–	–	6.00 to 7.00	≥ 7.00	–	–	pIC50 [1, 9]: ≥ 7.00; pIC50 [2, 10]: ≥ 7.00
CCC1(c2cccc(-c3ccncc3C)c2)C2=C(CC(C)(C)NC2=O)Nc2n[nH]c(C(F)(F)F)c21 (stereo not shown) [Compound 947404]	–	–	6.00 to 7.00	≥ 7.00	–	–	pIC50 [1, 9]: ≥ 7.00; pIC50 [2, 10]: ≥ 7.00
CCC1(c2cccc(-c3cnn(C)c3)c2)C2=C(CC(C)(C)NC2=O)Nc2n[nH]c(C(F)(F)F)c21 (stereo not shown) [Compound 947405]	–	–	6.00 to 7.00	≥ 7.00	–	–	pIC50 [1, 9]: ≥ 7.00; pIC50 [2, 10]: ≥ 7.00
CC[C@]1(c2cccc(-c3ccnc(C)c3)c2)C2=C(C[C@]3(CCOC3)NC2=O)Nc2n[nH]cc21 [Compound 947406]	–	–	< 5.30	6.00 to 7.00	6.00 to 7.00	≥ 7.00	–
CCC1(c2cccc(-c3ccnc(C)c3)c2)C2=C(CC3(CCOC3)CC2=O)Nc2n[nH]cc21 (stereo not shown) [Compound 947407]	–	–	–	–	5.30 to 6.00	≥ 7.00	–
CC[C@]1(c2cccc(-c3c(C)nn(C)c3C)c2)C2=C(CC(C)(C)NC2=O)Nc2n[nH]cc21 [Compound 947408]	–	–	5.30 to 6.00	6.00 to 7.00	–	–	pIC50 [1, 9]: ≥ 7.00; pIC50 [2, 10]: ≥ 7.00
CC[C@]1(c2cccc(-c3ccncc3C)c2)C2=C(CC(C)(C)NC2=O)Nc2n[nH]c(C)c21 [Compound 947409]	–	–	–	–	–	–	pIC50 [1, 9]: < 5.30; pIC50 [2, 10]: 5.30 to 6.00
CC[C@]1(c2cccc(-c3cnn4c3CCCC4)c2)C2=C(CC(C)(C)NC2=O)Nc2n[nH]cc21 [Compound 947410]	–	–	< 5.30	6.00 to 7.00	–	–	pIC50 [1, 9]: 6.00 to 7.00; pIC50 [2, 10]: ≥ 7.00
CCC1(c2cccc(-c3ccnc(C)c3)c2)C2=C(CC3(CCOC3)CC2=O)Nc2n[nH]cc21 (stereo not shown) [Compound 947412]	–	–	–	–	< 5.30	5.30 to 6.00	–
CC[C@@]1(c2cccc(-c3c(C)nn(C)c3C)c2)C2=C(CC(C)(C)NC2=O)Nc2n[nH]cc21 [Compound 947413]	–	–	–	–	–	–	pIC50 [1, 9]: < 5.30; pIC50 [2, 10]: 5.30 to 6.00
CC[C@@]1(c2cccc(-c3ccncc3C)c2)C2=C(CC(C)(C)NC2=O)Nc2n[nH]c(C)c21 [Compound 947414]	–	–	5.30 to 6.00	6.00 to 7.00	–	–	pIC50 [1, 9]: ≥ 7.00; pIC50 [2, 10]: ≥ 7.00
CCC1(c2cccc(-c3cnn4c3CCCC4)c2)C2=C(CC(C)(C)NC2=O)Nc2n[nH]cc21 (stereo not shown) [Compound 947415]	–	–	–	–	–	–	pIC50 [1, 9]: < 5.30; pIC50 [2, 10]: 5.30 to 6.00
CCC1(c2cccc(C(F)(F)F)c2)C2=C(CCN(c3cccnc3)C2=O)Nc2n[nH]cc21 (stereo not shown) [Compound 947433]	–	–	–	–	–	–	pIC50 [1, 9]: < 5.30; pIC50 [2, 10]: < 5.30
Cc1ccc(S(=O)(=O)N2CCC3(CC2)C2=C(CC(C)(C)CC2=O)Nc2n[nH]cc23)cc1 [Compound 947459]	–	–	–	–	6.00 to 7.00	≥ 7.00	–
Cc1c(S(=O)(=O)N2CCC3(CC2)C2=C(CC(C)(C)CC2=O)Nc2n[nH]cc23)cnn1C [Compound 947460]	–	–	–	–	≥ 7.00	≥ 7.00	–

— patent US20250313563A1, “GLYCOGEN SYNTHASE KINASE 3 INHIBITORS AND USES THEREOF” (The Broad Institute, Inc., priority 2022, published 2025)
